Tests used:
[1] = test system: Smn protein; assay: Smn protein assay (Smn HTRF) in cultured cells; assay type: cell-based, human; conditions: Homo sapiens, Fibroblast, GM03813 SMA Type 1 patient fibroblasts, 48 hours, HTRF; for maximal fold induction: 7-point concentration data, relative to vehicle, read-out: maximum fold (Fold) increase of Smn protein; for EC (1.5-fold): concentration producing 1.5 times Smn protein vs DMSO vehicle, read-out: EC1.5x for Smn protein expression
Method in brief: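 SMA patient fibroblasts (5,000/well) were exposed to a 7-point, 3.16-fold compound dilution series for 48 hours at 37° C, in triplicate. Lysates were read by HTRF with anti-SMN d2/kryptate at 665/620 nm. Blank-corrected signal was expressed as fold over DMSO vehicle, giving the EC1.5x and the maximum fold increase.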

[2] = test system: full length SMN2 minigene mRNA containing SMN2 exon 7 (SMN2-A minigene); assay: SMN2 minigene mRNA splicing RT-qPCR assay in cultured cells; assay type: cell-based, human; conditions: Homo sapiens, HEK293-H; HEK293H cells stably transfected with SMN2-A minigene, 24 hours, 7-point concentration curve; concentration giving 1.5-fold SMN2 full length mRNA vs vehicle; read-out: EC1.5x for production of full length SMN2 mRNA
Method in brief: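 HEK293H cells stably carrying the SMN2-A minigene were treated 24 h at 37 °C with a 7-point, 3.16-fold test compound series, in duplicate. Multiplex RT-qPCR measured exon 7-containing minigene FL mRNA, normalized to GAPDH and expressed relative to vehicle; EC1.5x is the concentration giving 1.5-fold FL mRNA.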

Compound `Cc1csc(-c2cc(=O)c3cc(N4CCNCC4)ccc3o2)n1` [Cpd 76, 2-(4-methyl-1,3-thiazol-2-yl)-6-(piperazin-1-yl)-4H-chromen-4-one] has a maximal fold induction [1] of 1.5 to 1.65, an EC (1.5-fold) [1] of 1 to 3 µM and a melting point of 179 to 182 °C. For the same compound, the EC (1.5-fold) [2] was 0.3 to 1 µM.

Compound `C[C@H]1CN(c2ccc3oc(-c4cccc(F)c4)cc(=O)c3c2)CCN1` [Cpd 77, 2-(3-fluorophenyl)-6-[(3S)-3-methylpiperazin-1-yl]-4H-chromen-4-one] has a maximal fold induction [1] of 1.5 to 1.65, an EC (1.5-fold) [1] of 0.3 to 1 µM and a melting point of 170 to 172 °C. For the same compound, the EC (1.5-fold) [2] was 0.1 to 0.3 µM.

Compound `C[C@H]1CN(c2ccc3oc(-c4cccc(C(F)(F)F)c4)cc(=O)c3c2)CCN1` [Cpd 78, 6-[(3S)-3-methylpiperazin-1-yl]-2-[3-(trifluoromethyl)phenyl]-4H-chromen-4-one] has a maximal fold induction [1] of over 1.65, an EC (1.5-fold) [1] of at most 0.3 µM and a melting point of 150 to 152 °C. For the same compound, the EC (1.5-fold) [2] was at most 0.1 µM.

`O=c1cc(-c2cc(F)cc(F)c2)oc2ccc(N3CCNCC3)cc12` [Cpd 79, 2-(3,5-difluorophenyl)-6-(piperazin-1-yl)-4H-chromen-4-one] showed a maximal fold induction [1] of 1.35 to 1.5, an EC (1.5-fold) [1] of 3 to 10 µM and a melting point of 180 to 190 °C. The EC (1.5-fold) [2] was at most 0.1 µM.

`C[C@H]1CN(c2ccc3oc(-c4cc(F)cc(F)c4)cc(=O)c3c2)CCN1` [Cpd 80, 2-(3,5-difluorophenyl)-6-[(3S)-3-methylpiperazin-1-yl]-4H-chromen-4-one] showed a maximal fold induction [1] of 1.5 to 1.65, an EC (1.5-fold) [1] of 0.3 to 1 µM and a melting point of 175 to 178 °C. The EC (1.5-fold) [2] was at most 0.1 µM.

Source: US9914722B2, “Compounds for treating spinal muscular atrophy” (PTC Therapeutics Inc., priority 2012, dated 2018)
